Data taken from patent US9096615B2, “Bridged bicyclic amino thiazine dioxide compounds as inhibitors of beta-secretase and methods of use thereof” (AMGEN INC., priority 2013, dated 2015).
Read-outs that look alike come from different tables or passages of the source.

Experiments:
[1] = system: Aβ40 in conditioned medium of cells stably expressing Amyloid Precursor Protein (APP); experiment: In vitro BACE cell-based assay (HEK cell assay, Aβ40 sandwich ELISA); conditions: Homo sapiens, HEK293
Protocol: In Vitro BACE Cell-Based Assay
The cell-based assay measures inhibition or reduction of Aβ40 in conditioned medium of test compound treated cells expressing amyloid precursor protein.
Cells stably expressing Amyloid Precursor Protein (APP) were plated at a density of 40K cells/well in 96 well plates (Costar). The cells were cultivated for 24 hours at 37° C. and 5% CO2 in DMEM supplemented with 10% FBS. The test compounds were then added to cells in 10-point dose response concentrations with the starting concentration being either 100 μM or 10 μM. The compounds were diluted from stock solutions in DMSO and the final DMSO concentration of the test compounds on cells was 0.1%. After 24 h of incubation with the test compounds the supernatant conditioned media was collected and the Aβ 40 levels were determined using a sandwich ELISA. The IC50 of the compound was calculated from the percent of control or percent inhibition of Aβ 40 as a function of the concentration of the test compound.
The sandwich ELISA to detect Aβ 40 was performed in 96 well microtiter plates, which were pre-treated with goat anti-rabbit IgG (Pierce). The capture and detecting antibody pair that were used to detect Aβ 40 from cell supernatants were affinity purified pAb40 (Biosource) and biotinylated 6E10 (Signet Labs Inc.), respectively. The optimal concentration for the pAb40 antibody was 3 μg/ml in Superblock/TBS (Pierce) that was supplemented with 0.05% Tween 20 (Sigma). Optimal concentration for the detection antibody 6E10-biotinylated was 0.5 μg/ml in Superblock/TBS (Pierce) that had been supplemented with 2% normal goat serum and 2% normal mouse serum.
Cellular supernatants were incubated with the capture antibody for 3 h at 4° C., followed by 3 wash steps in TBS-tween (0.05%). The detecting antibody incubation was for 2 h at 4° C., again followed by the wash steps as described previously. The final readout of the ELISA is Time-Resolved Fluorescence (counts per minute) using Delfia reagents Streptavidin-Europium and Enhancement solutions (Perkin Elmer) and the Victor 2 multilabel counter (Perkin Elmer).

Cathepsin D (Cat D) = biological target: T1, Cathepsin D (Cat D) (Homo sapiens, UniProt P07339); experiment: In vitro enzymatic Cathepsin D (Cat D) FRET assay; assay type: biochemical; conditions: read-out: CatD IC50
T1 construct: made in house; host or cells: CHO cells
Protocol: In Vitro Enzymatic Cathepsin D (Cat D) FRET (Fluorescence Resonance Energy Transfer) Assay
Recombinant Cat D was expressed in CHO cells. The assay buffer for CathepsinD is 0.05 M citrate pH 3.5, 10% DMSO final, 5 mM CHAPS. The Cat D enzyme (9 nM) is pre-incubated for one hour with inhibitors, typically in about 1 uL of DMSO according to a serial dilution, is added thereto. The assays are effectively started by the addition of different FRET substrates (20 nM for Cat D) and the combination is incubated for one hour. The FRET assay is terminated with by addition of Tris buffer, which raises the pH to neutrality, and the fluorescence is determined. The FRET substrate is a peptide with commercially available fluorophore and quencher, on opposite sides of the BACE cleavage site. The Cat D substrate peptide sequence is based on sequence #1 of Table 1 from Gulnik et al. FEBS Letters v413 p 379-384 1997. Proteolytic cleavage of the FRET substrate releases quenching of fluorescence (Cat D excitation 500 nm and emission 580 nm). […]
Where available, the in-vitro Cat D FRET assay data for each of the Examples, conducted by the first procedure, is provided in Tables 1 and 3. For example, the compound of example 28 has a Cat D IC50 value of >400 uM.

BACE1 = BACE1 (Homo sapiens, UniProt P56817); experiment: In vitro enzymatic BACE FRET assay; assay type: biochemical
Protocol: In Vitro Enzymatic BACE FRET (Fluorescence Resonance Energy Transfer) Assay
Enzyme Assay Data in the Example Table I
The assay buffer used in this screen is 0.05 M acetate, pH 4.2, 10% DMSO final, 100 uM genapol (which is a nonionic detergent, below its Critical Micelle Concentration). The Beta Secretase enzyme (0.2 nM) is pre-incubated for one hour with inhibitors, typically in about 1 uL of DMSO according to a serial dilution, are added thereto. This assay is effectively started by the addition of FRET substrate (50 nM) and the combination is incubated for one hour. The FRET assay is terminated with by addition of Tris buffer, which raises the pH to neutrality, and the fluorescence is determined. The FRET substrate is a peptide with commercially available fluorophore and quencher, on opposite sides of the BACE cleavage site. Proteolytic cleavage of the FRET substrate releases quenching of fluorescence (excitation 488 nm and […]).

[2] = average IC50, read-out: BACE1 cell assay IC50
[3] = average IC50, read-out: BACE1 Enzyme assay IC50
[4] = Aβ40, 24 h incubation, read-out: HEK cell assay IC50
[5] = read-out: BACE1 FRET assay IC50

Chain of BACE1 (P56817 46-501, species assumed): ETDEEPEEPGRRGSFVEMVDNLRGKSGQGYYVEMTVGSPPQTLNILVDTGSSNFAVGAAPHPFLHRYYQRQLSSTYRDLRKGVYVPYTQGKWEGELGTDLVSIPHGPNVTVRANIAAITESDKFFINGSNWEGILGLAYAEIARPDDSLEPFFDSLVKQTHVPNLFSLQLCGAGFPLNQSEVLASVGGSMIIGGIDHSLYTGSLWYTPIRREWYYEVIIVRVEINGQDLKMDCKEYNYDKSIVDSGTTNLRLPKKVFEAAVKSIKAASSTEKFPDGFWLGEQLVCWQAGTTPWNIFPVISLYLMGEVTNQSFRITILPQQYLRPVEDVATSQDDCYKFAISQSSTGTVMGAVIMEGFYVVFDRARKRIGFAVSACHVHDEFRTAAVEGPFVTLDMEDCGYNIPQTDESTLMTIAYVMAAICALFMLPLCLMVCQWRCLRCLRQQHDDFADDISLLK
T1 sequence (P07339 65-412, species assumed): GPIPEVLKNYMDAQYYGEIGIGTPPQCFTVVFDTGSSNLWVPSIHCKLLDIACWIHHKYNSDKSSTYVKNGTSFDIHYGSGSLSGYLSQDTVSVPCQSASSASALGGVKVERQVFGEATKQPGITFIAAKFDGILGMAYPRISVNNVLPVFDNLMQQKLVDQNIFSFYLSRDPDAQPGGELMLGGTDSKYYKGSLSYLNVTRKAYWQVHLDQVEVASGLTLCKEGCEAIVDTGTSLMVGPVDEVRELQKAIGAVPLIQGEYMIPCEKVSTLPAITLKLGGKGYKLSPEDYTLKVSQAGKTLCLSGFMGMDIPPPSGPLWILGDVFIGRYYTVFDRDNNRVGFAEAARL

SMILES	IC50 [1, 2]	IC50 (Cathepsin D (Cat D); average IC50, first procedure)	IC50 (BACE1; [3])	IC50 [1, 4]	IC50 (Cathepsin D (Cat D))	IC50 (BACE1; [5])
C[C@]12CC[C@H]([C@@](C)(c3cc(NC(=O)c4ccc(C#CC5CC5)cn4)ccc3F)N=C1N)S2(=O)=O [Example 65, N-(3-((1R,2R,5S)-4-amino-2,5-dimethyl-8,8-dioxido-8-thia-3-azabicyclo[3.2.1]oct-3-en-2-yl)-4-fluorophenyl)-5-(cyclopropylethynyl)-2-pyridinecarboxamide]	0.016 µM	> 400 µM	0.007 µM	–	–	–
COc1cnc2c(Nc3ccc(F)c([C@@]4(C)N=C(N)[C@]5(C)CCC[C@H]4S5(=O)=O)c3)nccc2n1 [Example 2, (1S,4R,5R)-2-Amino-4-(2-fluoro-5-((2-methoxypyrido[3,4-b]pyrazin-5-yl)amino)phenyl)-1,4-dimethyl-9-thia-3-azabicyclo[3.3.1]non-2-ene 9,9-dioxide]	–	–	–	0.055 µM	166 µM	0.13 µM
Cc1cc(C(F)(F)F)cnc1C(=O)Nc1ccc(F)c([C@@]2(C)N=C(N)[C@]3(C)CC[C@H]2S3(=O)=O)c1 [Example 27, N-(3-((1R,2R,5S)-4-Amino-2,5-dimethyl-8,8-dioxido-8-thia-3-azabicyclo[3.2.1]oct-3-en-2-yl)-4-fluorophenyl)-3-methyl-5-(trifluoromethyl)picolinamide]	–	–	–	0.002 µM	2040 µM	0.014 µM
C[C@]1(c2cc(Nc3nccc4nc(OCC5CC5)cnc34)ccc2F)N=C(N)[C@@]2(C)CC[C@@H]1S2(=O)=O [Example 68, N-(3-((1S,2R,5R)-4-amino-2,5-dimethyl-8,8-dioxido-8-thia-3-azabicyclo[3.2.1]oct-3-en-2-yl)-4-fluorophenyl)-2-(cyclopropylmethoxy)pyrido[3,4-b]pyrazin-5-amine]	0.033 µM	> 400 µM	0.005 µM	–	–	–
CC#CCOc1cnc(C(=O)Nc2ccc(F)c([C@@]3(C)N=C(N)[C@]4(CF)CC[C@H]3S4(=O)=O)c2)cn1 [Example 95, N-(3-((1R,2R,5S)-4-amino-5-(fluoromethyl)-2-methyl-8,8-dioxido-8-thia-3-azabicyclo[3.2.1]oct-3-en-2-yl)-4-fluorophenyl)-5-(2-butyn-1-yloxy)-2-pyrazinecarboxamide]	0.003 µM	603 µM	0.007 µM	–	–	–
COCc1ccc(C(=O)Nc2ccc(F)c([C@@]3(C)N=C(N)[C@@]4(C)CC[C@@H]3S4(=O)=O)c2)nc1 [Example 90, N-(3-((1S,2R,5R)-4-amino-2,5-dimethyl-8,8-dioxido-8-thia-3-azabicyclo[3.2.1]oct-3-en-2-yl)-4-fluorophenyl)-5-(methoxymethyl)-2-pyridinecarboxamide]	0.02 µM	3420 µM	0.057 µM	–	–	–
CC#CCOc1cnc2c(Nc3ccc(F)c([C@@]4(C)N=C(N)[C@@]5(C)CC[C@@H]4S5(=O)=O)c3)ncc(F)c2c1 [Example 134, N-(3-((1S,2R,5R)-4-amino-2,5-dimethyl-8,8-dioxido-8-thia-3-azabicyclo[3.2.1]oct-3-en-2-yl)-4-fluorophenyl)-3-(2-butyn-1-yloxy)-5-fluoro-1,7-naphthyridin-8-amine]	0.004 µM	1610 µM	0.001 µM	–	–	–
CCc1ccc(C(=O)Nc2ccc(F)c([C@@]3(C)N=C(N)[C@@]4(CF)CC[C@@H]3S4(=O)=O)c2)nc1 [Example 101, N-(3-((1S,2R,5R)-4-amino-5-(fluoromethyl)-2-methyl-8,8-dioxido-8-thia-3-azabicyclo[3.2.1]oct-3-en-2-yl)-4-fluorophenyl)-5-ethyl-2-pyridinecarboxamide]	0.012 µM	1850 µM	0.026 µM	–	–	–
COc1ccc(C(=O)Nc2ccc(F)c([C@@]3(C)N=C(N)[C@@]4(C)CC[C@@H]3S4(=O)=O)c2)c(F)c1 [Example 123, N-(3-((1S,2R,5R)-4-amino-2,5-dimethyl-8,8-dioxido-8-thia-3-azabicyclo[3.2.1]oct-3-en-2-yl)-4-fluorophenyl)-2-fluoro-4-methoxybenzamide]	0.083 µM	1620 µM	0.13 µM	–	–	–

Other lines, results leading:

IC50 [1, 2]	IC50 (Cathepsin D (Cat D); average IC50, first procedure)	IC50 (BACE1; [3])	IC50 [1, 4]	IC50 (Cathepsin D (Cat D))	IC50 (BACE1; [5])	SMILES
–	–	–	0.031 µM	51.5 µM	0.006 µM	Cc1cc(Cl)cnc1C(=O)Nc1ccc(F)c([C@@]2(C)N=C(N)[C@@]3(C)CCC[C@]2(C)S3(=O)=O)c1 [Example 11, N-(3-((1S,2R,5R)-4-Amino-1,2,5-trimethyl-9,9-dioxido-9-thia-3-azabicyclo[3.3.1]non-3-en-2-yl)-4-fluorophenyl)-5-chloro-3-methylpicolinamide]
0.381 µM	21.5 µM	0.011 µM	–	–	–	C[C@]12CC[C@](C)([C@@](C)(c3cc(Nc4ncc(F)c5cc(Cl)cnc45)ccc3F)N=C1N)S2(=O)=O [Example 51, N-(3-((1R,2R,5S)-4-amino-1,2,5-trimethyl-8,8-dioxido-8-thia-3-azabicyclo[3.2.1]oct-3-en-2-yl)-4-fluorophenyl)-3-chloro-5-fluoro-1,7-naphthyridin-8-amine]
–	–	–	0.149 µM	19 µM	0.007 µM	Cc1cc(OC(F)F)cnc1C(=O)Nc1ccc(F)c([C@@]2(C)N=C(N)[C@@]3(C)CCC[C@]2(F)S3(=O)=O)c1 [Example 9, N-(3-((1S,2R,5R)-4-Amino-1-fluoro-2,5-dimethyl-9,9-dioxido-9-thia-3-azabicyclo[3.3.1]non-3-en-2-yl)-4-fluorophenyl)-5-(difluoromethoxy)-3-methylpicolinamide]
0.28 µM	12 µM	0.004 µM	–	–	–	C[C@]12CC[C@](C)(C(N)=N[C@]1(C)c1cc(Nc3ncc(F)c4cc(Cl)cnc34)ccc1F)S2(=O)=O [Example 50, N-(3-((1S,2R,5R)-4-amino-1,2,5-trimethyl-8,8-dioxido-8-thia-3-azabicyclo[3.2.1]oct-3-en-2-yl)-4-fluorophenyl)-3-chloro-5-fluoro-1,7-naphthyridin-8-amine]
–	–	–	0.002 µM	17.7 µM	0.009 µM	Cc1cc(OC(F)F)cnc1C(=O)Nc1ccc(F)c([C@@]2(C)N=C(N)[C@]3(C)CCC[C@@]2(C)S3(=O)=O)c1 [Example 14, N-(3-((1R,2R,5S)-4-Amino-1,2,5-trimethyl-9,9-dioxido-9-thia-3-azabicyclo[3.3.1]non-3-en-2-yl)-4-fluorophenyl)-5-(difluoromethoxy)-3-methylpicolinamide]
0.004 µM	54.1 µM	0.011 µM	–	–	–	Cc1cc(C(F)(F)F)cnc1C(=O)Nc1ccc(F)c([C@@]2(C)N=C(N)[C@@]3(C)CC[C@]2(C)S3(=O)=O)c1 [Example 48, N-(3-((1S,2R,5R)-4-amino-1,2,5-trimethyl-8,8-dioxido-8-thia-3-azabicyclo[3.2.1]oct-3-en-2-yl)-4-fluorophenyl)-3-methyl-5-(trifluoromethyl)-2-pyridinecarboxamide]
